In US20050049174A1, “Method and substance for facilitating weaning, reducing morbidity and reducing mortality in cardiac surgeries involving extra-corporal circulation” (priority 2003, published 2005):
Entries after “also recorded” stand apart in the source; their conditions may differ. Read-outs that look alike come from different tables or passages of the source. Marks after values point to notes of the source that are not given here.

Experiments:
[1] = test system: cardiac surgery patients; conditions: cited from earlier work; for Result: hemodynamic effects, amrinone vs milrinone: n 44, elective cardiac surgery, bolus amrinone 0.75 mg/kg or milrinone 25 μg/kg
[2] = test system: porcine subjects undergoing cardiopulmonary bypass
[3] = test system: patients with pulmonary hypertension; conditions: inhaled milrinone; cited from earlier work
[4] = test system: person in cardiogenic shock; assay: inhaled milrinone in a person in cardiogenic shock (echocardiographic and hemodynamic monitoring); assay type: in vivo, human; conditions: 5 mg milrinone through inhalation
Text: Finally, the cardiac index increased from 1.8 to 2.8 L.min/m^2.

[5] = test system: coronary care unit patients hospitalized for an exacerbation of chronic heart failure; conditions: cited from earlier work
[6] = test system: rings of porcine pulmonary artery with endothelium; assay: vascular reactivity studies in organ chambers after cardiopulmonary bypass; assay type: in vivo, Landrace swine; conditions: for KCL: amplitude of the contraction to KCl (60 mmol/L) / Dose PE: concentration of PE used to obtain 50% of contraction to KCl: mean +/- SEM
Description: After 60 minutes of reperfusion, swine were sacrificed and pulmonary arteries harvested. After contraction to phenylephrine, pulmonary arteries endothelium-dependent relaxations to bradykinin (Gq coupled) and acetylcholine (Gi coupled) were studied in standard organ chamber experiments.
Less than 10 minutes after “en bloc” excision, the heart was removed and the primary pulmonary artery was dissected. Branches of second degree pulmonary arteries were isolated and dissected free of connective and adventitial tissue and divided into rings (4 mm wide; 16 rings per animal). All rings were placed in organ chambers (Emka technologies Inc, Paris, France) filled with 20 mL modified Krebs-bicarbonate solution continuously heated at 37° C. and oxygenated with a carbogen mixture (95% O2 and 5% CO2). The rings were suspended between 2 metal stirrups with the upper 1 connected to an isometric force transducer connected to a signal amplifier and then allowed to stabilize for 30 minutes. Data were collected with a biological signal data acquisition software (IOX 1.700; Emka technologies Inc, Paris, France). Each arterial ring was stretched to the optimal point of its active length-tension curve (3.5 g) as determined by measuring the contraction to potassium chloride (KCl) 60 mmol/L at different levels of stretch (data not shown). The maximal contraction of rings was then obtained with addition of potassium chloride (KCl 60 mmol/L). After obtention of a plateau, all baths were washed twice with modified Krebs bicarbonate solution and indomethacin ([…]; to exclude production of endogenous prostanoids) was added in each bath. After 45 minutes of stabilisation, phenylephrine (range 2 {acute over} 10-7 mol/L to 3 {acute over} 10-6 mol/L) was added to obtain a contraction averaging 50% of the maximal contraction to KCl.
The NO-mediated relaxation pathway was studied by constructing concentration-response curves to acetylcholine (ACh, 10-9 to 10-5 mol/L; an agonist of M2 receptors coupled to Gi-proteins) and to bradykinin (BK, 10-12 to 10—6 mol/L; an agonist of B2 receptors coupled to Gq-proteins).
At the end of the experiment, endothelium-independent relaxations were studied with the use of 10-5 mol/L sodium nitroprusside (SNP), a nitric oxide donor
All values are expressed as the mean±standard error of the mean (SEM). Contractions to phenylephrine are expressed as a percentage of the maximal contraction to KCl (60 mmol/L). Relaxations are expressed as the percentage of the maximal contraction to phenylephrine for each ring. Two-way repeated analysis of variance (ANOVA) were performed to compare each point of the concentration-response curves between control rings and CPB rings. Student's t test for paired/unpaired observations was used for the comparison of the pulmonary artery pressures and the intravascular cAMP content. Statistical analysis was performed with the computer software S.A.S (Instr Inc. Cary, N.C., USA). A P-value less than 0.05 was considered statistically significant.

[7] = test system: person operated under cardiopulmonary bypass; assay: inhaled prostacyclin at weaning from bypass in a person; assay type: in vivo, human; conditions: weaned with inhaled prostacyclin (75 μg)
Description: In another case, a person was operated for a third time under cardiopulmonary bypass. […] Pre-operatively, they had abnormal right ventricular diastolic function with a lower systolic or S wave on the hepatic venous Doppler signal. After bypass (duration 157 min), they were weaned with inhaled prostacyclin (75 μg) and they left the operating room with noradrenaline at 2.5 μg/min and nitroglycerine at 0.4 μg/kg/min.

[8] = test system: heart transplant candidate; conditions: inhaled prostacyclin group; cited from earlier work
[9] = test system: patient, mitral valve and tricuspid valve repair; assay: inhaled prostacyclin prior to extra-corporal circulation in a patient; assay type: in vivo, human
Text: This is to be contrasted with changes observed in Doppler hepatic venous flow after inhaled prostacyclin in a patient scheduled to undergo mitral valve and tricuspid valve repair. […] This was associated with a reduction in mean pulmonary artery pressure from 36 to 29 mmHg, pulmonary vascular resistance index from 589 to 267 dynes.s/cm^5/m^2 and an increase in cardiac index from 1.9 to 2.4 L/min/m^2. Heart rate and mean arterial pressure decreased respectively from 63 to 52 beats/min and from 76 to 64 mmHg.

[10] = intravenous; animal studies; cited from earlier work
[11] = n 120, low CO after cardiac surgery

[N]=O [NO, nitric oxide]
Result: right ventricular ejection fraction ([1]; n 45, pulmonary hypertension, Group 3 40 ppm NO compared to group 1 (milrinone) and 2 (20 ppm NO)): Group 3 (40 ppm)higher right

Nc1cc(-c2ccncc2)c[nH]c1=O [amrinone]
Result: hemodynamic effects, amrinone vs milrinone [1]: produced similar

CC(CCc1ccc(O)cc1)NCCc1ccc(O)c(O)c1 (stereo not drawn) [dobutamine]
Result: overall comparison milrinone and dobutamine [1, 11]: comparable
Result: increases in cardiac index ([1]; n 120, low CO after cardiac surgery, dobutamine 10 to 20 μg/kg/min vs milrinone): group D had greater

Cc1[nH]c(=O)c(C#N)cc1-c1ccncc1 [milrinone]
Result: wean from bypass ([1]; n 32, LVEF ≦ 35%, PCWP ≧ 20 mmHg pre-bypass, bolus 50 ug/kg, perfusion 0.5 ug/kg/min, vs 5/15 placebo): All patients with milrinone
Result: hemodynamic effects, amrinone vs milrinone [1]: produced similar
Result: overall comparison milrinone and dobutamine [1, 11]: comparable
Result: decreases in mean pulmonary capillary wedge pressure ([1]; n 120, low CO after cardiac surgery, milrinone 50 μg/kg and perfusion 0.5 μg/kg/min vs dobutamine): Group M had greater
systemic vascular resistance after bolus ([2]; in vivo): did not fall
heart rate ([2]; in vivo, iv): increased
systemic vascular resistance after bolus ([2]; in vivo, iv): important decrease
heart rate ([2]; inhaled milrinone vs CPB, at 15, 45 and 75 minutes per CPB and 30 and 60 minutes post CPB, p<0.05, FIG. 6): significantly lower
mean arterial pressure following administration of the bolus ([2]; inhaled milrinone, bolus of 60-90 mg/kg via nebulizer during 15 minutes preceding CPB, p<0.05, FIG. 2): significant decrease
pulmonary vascular resistance [3]: reduce pulmonary vascular resistance; also recorded: lowered pulmonary vascular resistances
right atrial pressure (RAP) after administration ([4]; decrease from 17): 7 mm Hg
mean pulmonary arterial pressure after administration ([4]; decrease from 33): 24 mm Hg
mean arterial pressure after administration ([4]; decrease from 92): 77 mm Hg
heart rate after administration ([4]; increase from 72): 84 beats/minutes
median number of days hospitalized for cardiovascular causes within 60 days ([5]; intravenous milrinone vs placebo): no difference
in-hospital mortality ([5]; intravenous milrinone, vs 2.3% placebo, P=0.19): 3.8%
60-day mortality ([5]; intravenous milrinone, vs 8.9% placebo, P=0.41): 10.3%
KCL: amplitude of the contraction to KCl (60 mmol/L) ([6]; Mil INH group): 4.8 +/− 0.28
Dose PE: concentration of PE used to obtain 50% of contraction to KCl ([6]; Mil INH group, p<0.01 vs intravenous milrinone, p<0.05 vs control): greater
Dose PE: concentration of PE used to obtain 50% of contraction to KCl ([6]; Mil INH group, p<0.01 vs intravenous milrinone, p<0.05 vs control, listed as Mil INH): 8.3 +/− 0.93*,**
Dose PE: concentration of PE used to obtain 50% of contraction to KCl ([6]; Mil IV group): 4.1 +/− 0.3
KCL: amplitude of the contraction to KCl (60 mmol/L) ([6]; Mil IV group): 4.0 +/− 0.3
endothelium-dependent relaxation to BK ([6]; inhaled milrinone compared to all other groups, P<0.05, FIG. 10): increased relaxation; also recorded: preventive effect
CPB-induced decrease of endothelium-dependent relaxation to ACh ([6]; inhaled milrinone prior to CPB, FIG. 9): completely reversed; also recorded: preventive effect
endothelium-dependent relaxation to BK: preventive effect on endothelial function ([6]; intravenous milrinone, FIG. 10): not seen

CCCCC[C@H](O)/C=C/[C@@H]1[C@H]2C/C(=C/CCCC(=O)O)O[C@H]2C[C@H]1O [prostacyclin]
vasoactive drugs in the post-operative period [7]: No vasoactive drugs were required
mean arterial pressure after bypass ([7]; decreased from 78): 67 mmHg
cardiac index after bypass ([7]; increase from 2.3): 3.3 L/min/m^2
heart rate after bypass ([7]; increased from 66): 85 beats/min
pulmonary vascular resistance indexed after bypass ([7]; reduction from 242): 121 dynes.s/cm^5/m^2
hepatic venous flow signal ([7]; right ventricular diastolic waveform still abnormal): did not change significantly
cardiac output increased by [8]: 11%
vasoactive drugs used post-operatively [9]: no vasoactive drugs used
difficult separation from bypass ([9]; cardiopulmonary bypass time of 138 min): no difficult separation from bypass
heart rate ([9]; decreased from 63): 52 beats/min
mean arterial pressure ([9]; decreased from 76): 64 mmHg
cardiac index ([9]; increase from 1.9): 2.4 L/min/m^2
Doppler hepatic venous flow systolic or S wave ([9]; negative value before, within 18 minutes): became positive and less pronounced
mean pulmonary artery pressure ([9]; reduction from 36): 29 mmHg
pulmonary vascular resistance index ([9]; reduction from 589): 267 dynes.s/cm^5/m^2
half-life [10]: 2 to 3 min
